Data on eleven molecules can be found in ChEMBL document CHEMBL1201862, “PubChem BioAssay data set” (2004).

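These data come from cells grown in 96-well plates and exposed to compound for 48 hours at five concentrations. GI50 is the concentration that inhibits growth by half.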 Calls of active or inactive are those of the source. No stated cut-off is given here; in the data, active = GI50 up to about 1.1 µM and inactive = higher.

Some test systems named below: SNB-75; OVCAR-8; Malme-3M; OVCAR-5; LOX IMVI; HCT-15; T47D; Hs-578T; SNB-19; IGROV-1; SN12C; MCF7; MDA-MB-435; SK-OV-3; PC-3; A549; SW-620; HCC 2998; KM12; NCI-H226.
Holding throughout (test): NCI-60 cell line screen, 48 h

In the case of `COc1ccc2c(=O)cc(-c3ccncc3)oc2c1OC`, the GI50 in the assay with SNB-75 was 18.2 µM (inactive); with OVCAR-8, 24.9 µM (inactive); in the assay on Malme-3M, 30.4 µM (inactive); in the assay on OVCAR-5, 24.6 µM (inactive); in the assay on LOX IMVI, 21 µM (inactive); in the assay on HCT-15, 28.5 µM. Moreover, the GI50 was 48.8 µM (inactive) with T47D; 15.7 µM (inactive) in the assay with Hs-578T; 31.4 µM (inactive) in the assay on SNB-19; 20.8 µM (inactive) in the assay on IGROV-1; 29.6 µM (inactive) in the assay on SN12C; 35.7 µM (inactive) in the assay with MCF7. Besides, the GI50 in the assay with MDA-MB-435 is 31.6 µM (inactive); with SK-OV-3, 41 µM (inactive); in the assay with PC-3, 23.8 µM (inactive); with A549, 33.1 µM (inactive); with SW-620 it was 31.6 µM (inactive); with HCC 2998, 25.3 µM (inactive). In the assay on KM12, the GI50 is 26.4 µM (inactive).
On to `O=C(OCC12CC3CC(CC(C3)C1)C2)c1ccc(NCc2cc(O)ccc2O)cc1`, for which the GI50 in the assay with SNB-75 was 1.81 µM (inactive); in the assay on OVCAR-8 it was 1.81 µM (inactive); with OVCAR-5, 2.1 µM (inactive); in the assay on LOX IMVI, 1.72 µM (inactive); in the assay on HCT-15 it was 1.32 µM; in the assay on T47D, 0.473 µM (active). Moreover, the GI50 in the assay on Hs-578T is 2.14 µM (inactive); with SNB-19 it was 4.33 µM (inactive); with IGROV-1 it was 0.131 µM (active); with SN12C, 2.57 µM (inactive); in the assay with MCF7, 1.08 µM (active); in the assay on MDA-MB-435, 1.99 µM (inactive). Moreover, the GI50 with SK-OV-3 is 6.08 µM (inactive); with NCI-H226 it was 1.77 µM (inactive); in the assay on PC-3, 0.713 µM (active); in the assay on A549, 2.67 µM (inactive); with SW-620, 3.02 µM (inactive); with HCC 2998, 1.79 µM (inactive). Besides, in the assay on KM12, the GI50 was 1.24 µM (inactive).
For `CCOC(=O)CCc1c(C(=O)OCC)[nH]c(/C=C2/NC(=O)C(C)=C2CC)c1C`, the GI50 is 15.4 µM (inactive) with SNB-75; 31.9 µM (inactive) in the assay with OVCAR-8; 13 µM (inactive) in the assay on Malme-3M; 29.5 µM (inactive) in the assay with OVCAR-5; 8.18 µM (inactive) with LOX IMVI; 3.47 µM in the assay on HCT-15. Further, the GI50 in the assay with T47D was 2.11 µM (inactive); in the assay on Hs-578T, 25.1 µM (inactive); in the assay on SNB-19 it was 13.1 µM (inactive); in the assay on IGROV-1, 8.38 µM (inactive); with SN12C, 16.9 µM (inactive); in the assay with MCF7, 5 µM (inactive). Besides, the GI50 with MDA-MB-435 was 6.73 µM (inactive); in the assay with SK-OV-3, 34.7 µM (inactive); in the assay on NCI-H226 it was 16.9 µM (inactive); in the assay on PC-3, 22.1 µM (inactive); with A549, 24.3 µM (inactive); with SW-620 it was 23.2 µM (inactive). For the same molecule, the GI50 with KM12 was 10.9 µM (inactive).
Take `COc1cc(NCc2ccc3oc(=O)c(-c4ccccc4)nc3c2)cc(OC)c1OC`: the GI50 in the assay on SNB-75 is > 10 µM (inactive); in the assay with OVCAR-8 it was > 10 µM (inactive); in the assay with OVCAR-5, > 10 µM (inactive); in the assay on LOX IMVI it was > 10 µM (inactive); with HCT-15, over 10 µM; in the assay with T47D, > 10 µM (inactive). Moreover, the GI50 in the assay with Hs-578T, in the assay on SNB-19, in the assay on IGROV-1, in the assay on SN12C, in the assay on MCF7 and in the assay with MDA-MB-435 was > 10 µM (inactive) throughout. Besides, the GI50 in the assay on SK-OV-3, with NCI-H226, in the assay with PC-3, with A549, with SW-620 and in the assay with HCC 2998 was > 10 µM (inactive) each time. In addition, in the assay on KM12, the GI50 is > 10 µM (inactive).
With `COC(=O)c1c(O)ccc2c1C1(Cc3ccccc3C1=O)C(O)O2` (stereo not drawn), the GI50 is 14.5 µM (inactive) with OVCAR-8; 21.7 µM (inactive) in the assay with Malme-3M; 17.5 µM (inactive) with OVCAR-5; 19.5 µM (inactive) in the assay with LOX IMVI; 13.3 µM in the assay with HCT-15; 18.2 µM (inactive) in the assay on T47D. The GI50 with Hs-578T was 23.3 µM (inactive); in the assay with SNB-19, 43.4 µM (inactive); in the assay on IGROV-1, 1.94 µM (inactive); with SN12C, 16.4 µM (inactive); with MCF7 it was 12.6 µM (inactive); in the assay with MDA-MB-435 it was 13.4 µM (inactive). The GI50 in the assay with SK-OV-3 is 20.2 µM (inactive); in the assay on NCI-H226, 9.79 µM (inactive); with PC-3 it was 17.2 µM (inactive); with A549, 20.6 µM (inactive); in the assay with SW-620 it was 25.1 µM (inactive); in the assay with HCC 2998 it was 31.2 µM (inactive). For the same molecule, the GI50 in the assay on KM12 was 25.4 µM (inactive).
As for `Cc1cc2[n-][n+]3ncc(-c4ccccc4)n3c2cc1[N+](=O)[O-]`, the GI50 with SNB-75 is > 100 µM (inactive); in the assay on OVCAR-5 it was > 100 µM (inactive); in the assay with LOX IMVI it was > 100 µM (inactive); in the assay with HCT-15, over 100 µM; in the assay with T47D, > 100 µM (inactive); in the assay on Hs-578T, > 100 µM (inactive). In addition, the GI50 was > 100 µM (inactive) in the assay on SNB-19; > 100 µM (inactive) in the assay on IGROV-1; > 10 µM (inactive) in the assay on SN12C; > 100 µM (inactive) in the assay on MCF7; > 100 µM (inactive) in the assay on MDA-MB-435; > 100 µM (inactive) in the assay with SK-OV-3. For the same molecule, the GI50 with PC-3, in the assay with A549, in the assay on SW-620 and with KM12 was > 100 µM (inactive) in each case.
As to `CCC1CCC2c3c([nH]c4ccccc34)C3C(=O)N(c4ccc(OC)cc4)C(=O)C3C2C1` (stereo not drawn), the GI50 in the assay on SNB-75 was 19.5 µM (inactive); with OVCAR-8, 27.1 µM (inactive); with HCT-15 it was 35.1 µM; with T47D, 16.8 µM (inactive); in the assay on Hs-578T, 22.2 µM (inactive); in the assay on SNB-19, 28.3 µM (inactive). In addition, the GI50 is 64.1 µM (inactive) in the assay on IGROV-1; 68.9 µM (inactive) in the assay with SN12C; 36.6 µM (inactive) with MCF7; 55.5 µM (inactive) in the assay on MDA-MB-435; 36.4 µM (inactive) in the assay on SK-OV-3; > 100 µM (inactive) in the assay on NCI-H226. For the same molecule, the GI50 was > 100 µM (inactive) in the assay with PC-3; 22.2 µM (inactive) in the assay on A549; 17.7 µM (inactive) in the assay on SW-620; 91.2 µM (inactive) in the assay on HCC 2998; 93.5 µM (inactive) with KM12.
Regarding `Cn1nc(-c2ccccc2)nc1[N+](=O)[O-]`, the GI50 was > 10 µM (inactive) in the assay on SNB-75; > 10 µM (inactive) with OVCAR-8; > 10 µM (inactive) in the assay on Malme-3M; > 10 µM (inactive) in the assay with OVCAR-5; > 10 µM (inactive) with LOX IMVI; over 10 µM in the assay with HCT-15. In addition, the GI50 with T47D, with Hs-578T, in the assay with SNB-19, in the assay on IGROV-1, in the assay with SN12C and with MDA-MB-435 was > 10 µM (inactive) throughout. The GI50 with SK-OV-3, with NCI-H226, with PC-3, with A549, in the assay with SW-620 and in the assay with HCC 2998 was > 10 µM (inactive) in each case. Further, in the assay on KM12, the GI50 was > 10 µM (inactive).
Regarding `CC(C)(C)OC(=O)NCC(c1c[nH]c2ccc(Br)cc12)c1c[nH]c2ccc(Br)cc12`, the GI50 in the assay with OVCAR-8 was 13.4 µM (inactive); with Malme-3M, 18.3 µM (inactive); in the assay with OVCAR-5 it was 7.48 µM (inactive); with LOX IMVI it was 7.03 µM (inactive); in the assay with HCT-15, 7.73 µM; in the assay on T47D, 10 µM (inactive). Besides, the GI50 in the assay on Hs-578T is 19.3 µM (inactive); with SNB-19 it was 11.2 µM (inactive); with IGROV-1 it was 4.07 µM (inactive); in the assay on SN12C, 5.13 µM (inactive); in the assay with MCF7, 5.41 µM (inactive); in the assay on MDA-MB-435, 11.7 µM (inactive). Further, the GI50 with NCI-H226 is 16.6 µM (inactive); in the assay with PC-3, 3.55 µM (inactive); with A549, 5.18 µM (inactive); in the assay on SW-620, 6.64 µM (inactive); with HCC 2998, 5.18 µM (inactive); with KM12, 4.16 µM (inactive).
For `O=c1c(Cc2ccccc2Cc2c(O)oc3ccccc3c2=O)c(O)oc2ccccc12`, the GI50 was 31.6 µM (inactive) in the assay with SNB-75; > 100 µM (inactive) in the assay on OVCAR-8; > 100 µM (inactive) in the assay on Malme-3M; > 100 µM (inactive) in the assay with OVCAR-5; > 100 µM (inactive) in the assay on LOX IMVI; over 100 µM with HCT-15. For the same molecule, the GI50 in the assay on T47D, in the assay with Hs-578T, in the assay on SNB-19, in the assay with IGROV-1, in the assay with SN12C and in the assay on MCF7 was > 100 µM (inactive) in each case. For the same molecule, the GI50 in the assay with MDA-MB-435, in the assay with SK-OV-3, in the assay with NCI-H226, in the assay on PC-3, in the assay with A549 and in the assay on SW-620 was > 100 µM (inactive) throughout. Further, in the assay on KM12, the GI50 is > 100 µM (inactive).
Turning to `C[C@]12CC[C@H](O)C[C@H]1CC[C@@H]1[C@@H]2CC[C@]2(C)[C@@H](C3=CC(=O)OC3)CC[C@]12O` [DIGITOXIGENIN], the GI50 in the assay on SNB-75 is 0.299 µM (active); in the assay on OVCAR-8, 0.147 µM (active); in the assay on Malme-3M, 0.0615 µM (active); with OVCAR-5, 0.59 µM (active); with LOX IMVI, 0.0547 µM (active); in the assay with HCT-15, 0.101 µM. The GI50 in the assay with T47D was 0.292 µM (active); in the assay with Hs-578T, 0.0673 µM (active); in the assay with SNB-19 it was 0.851 µM (active); in the assay with IGROV-1 it was 0.0668 µM (active); with SN12C it was 0.0349 µM (active); in the assay with MDA-MB-435, 0.217 µM (active). Moreover, the GI50 in the assay on SK-OV-3 was 0.111 µM (active); with NCI-H226, 1.27 µM (inactive); with PC-3, 0.149 µM (active); with A549, 0.0183 µM (active); with SW-620, 0.118 µM (active); with HCC 2998, 0.235 µM (active). Also, the GI50 in the assay with KM12 is 0.713 µM (active).
